Laboratory results reported in patent US6753005B1, “Method for tissue perfusion” (Direct Therapeutics, Inc., priority 1997, dated 2004).
Entries after “also recorded” stand apart in the source; their conditions may differ.

Experiments:
normal feline brain = assay: Normal feline brain model, direct intra-tissue injection; conditions: for Gross Findings: lesion size: 2 weeks
Description: Mongrel cats weighing 2.5-3.0 kg were obtained from Liberty Research, Waverly, N.Y. Animals were anaesthetized using intramuscular acepromazine at 0.1 mg/kg, followed by 0-30 mg total dose of ketamine. A small incision was made over and extending posteriorly from the coronal suture. A 3 mm burr hole was made 0.75 cm posterior to the coronal suture and 0.75 cm lateral to the midline. Using a stereotactic frame, solutions were injected at a depth of 0.75 cm in the area of the sensory cortex. The burr hole was closed with bone wax and the skin closed with a skin clip. Doses of carmustine between 5 and 20 mg were administered in dehydrated alcohol volumes of between 0.05-0.4 ml. Two weeks post injection animals were sacrificed, the brain removed in toto and fixed in 10% buffered formalin and the brain examined grossly for lesions at the site of injection. Solutions injected consisted of an ethanol solvent vehicle alone, or containing varying concentrations of carmustine.

normal rat liver = assay: Normal rat liver model, intrahepatic injection; type: in vivo; conditions: for Clinical Signs / Gross Findings (liver lesions) / Survival: 2 rats; for Gross Findings (liver lesions): 2 weeks; for Survival: sacrifice 2 weeks
Description: 54 male Sprague-Dawley rats 250-300 g in body weight were caged in groups of 2 by treatment group, in standard animal housing facilities and given free access to food and water. Prior to surgery, animals received 0.2 ml intramuscular injection of ketamine and xylazine (30 mg/kg and 4 mg/kg respectively). Rats were anesthetized and fixed on a restraining board. The right upper quadrant of the abdomen was shaved and prepped with betadine solution. A lateral incision approximately 1 cm in length was made 2 cm to the right of the abdominal mid-line and 2 cm below the last rib on the right side and the liver exposed. Under direct visual observation, the solution was injected into the liver slowly over a period of about 2 minutes, using a Hamilton microliter syringe (702) equipped with a 27 gauge needle. The needle was withdrawn and the abdominal incision closed using 4-0 plain gut to seal the peritoneum and skin clips to close the skin. Observations of each animal were made hourly for 4 hours during the day of surgery and daily thereafter for two weeks. At two weeks the animals were sacrificed and their livers examined grossly for lesions at the site of injection.

[1] = 0.05 ml ethanol + 5 mg carmustine (100 mg/ml), 1 cat
[2] = 0.05 ml ethanol + 20 mg carmustine (400 mg/ml), 1 cat
[3] = 0.1 ml ethanol + 10 mg carmustine (100 mg/ml), 1 cat
[4] = 0.2 ml ethanol + 5 mg carmustine (25 mg/ml), 1 cat
[5] = 0.4 ml ethanol + 5 mg carmustine (12.5 mg/ml), 1 cat
[6] = 100 μl ethanol + 1.25 mg carmustine (12.5 mg/ml)
[7] = 100 μl ethanol + 2.5 mg carmustine (25 mg/ml)
[8] = 100 μl ethanol + 5 mg carmustine (50 mg/ml)
[9] = 100 μl ethanol + 10 mg carmustine (100 mg/ml)
[10] = 100 μl ethanol, 12.5-50 mg/ml carmustine

Structure (SMILES): O=NN(CCCl)C(=O)NCCCl [Carmustine, carmustine]
- Clinical Signs (normal feline brain; [1]): NPND
- Gross Findings: lesion size (normal feline brain; [1]): 2-3 mm
- Survival (normal feline brain; 0.05 ml ethanol + 5 mg carmustine (100 mg/ml), 1 cat, sacrifice 2 weeks): Term
- Clinical Signs (normal feline brain; 0.05 ml ethanol + 10 mg carmustine (200 mg/ml), 1 cat): Circles to left, otherwise
- Survival (normal feline brain; 0.05 ml ethanol + 10 mg carmustine (200 mg/ml), 1 cat, sacrifice 2 weeks): Term
- Clinical Signs (normal feline brain; [2]): Died
- Gross Findings: lesion size (diameter) (normal feline brain; [2]): 1-1.5 cm
- Survival (normal feline brain; [2]): 3 days
- volume of lesion (normal feline brain; 0.05 ml ethanol containing 20 mg (400 mg/ml) carmustine): 1.0 to 1.77 mL
- volume of lesions (normal feline brain; 0.05 ml ethanol containing 10 and 20 mg (200 and 400 mg/ml) carmustine): 1.0 to 1.77 mL
- Clinical Signs (normal feline brain; [3]): NPND
- Gross Findings: lesion size (normal feline brain; [3]): 4-5 mm
- Survival (normal feline brain; 0.1 ml ethanol + 10 mg carmustine (100 mg/ml), 1 cat, sacrifice 2 weeks): Term
- Clinical Signs (normal feline brain; [4]): NPND
- Gross Findings: lesion size (normal feline brain; [4]): 4 mm
- Survival (normal feline brain; 0.2 ml ethanol + 5 mg carmustine (25 mg/ml), 1 cat, sacrifice 2 weeks): Term
- Clinical Signs (normal feline brain; [5]): NPND
- Gross Findings: lesion size (normal feline brain; [5]): 2-3 mm
- Survival (normal feline brain; 0.4 ml ethanol + 5 mg carmustine (12.5 mg/ml), 1 cat, sacrifice 2 weeks): Term
- toxic effects on the tissue (normal feline brain; 0.4 ml ethanol containing 5 mg (12.5 mg/ml) carmustine): no toxic effects
- effect on post-mitotic (non-dividing) cells of normal brain (normal feline brain; 50 μl ethanol, carmustine 200 or 400 mg/ml): destruction of a relatively large volume of tissue; also recorded: novel activity of carmustine against non-dividing cells
- toxic effects in normal brain tissue (normal feline brain; solutions containing carmustine up to 100 mg/ml): no toxic effects
- Clinical Signs (normal rat liver; [6]): ANAS
- Gross Findings (liver lesions) (normal rat liver; [6]): no lesion
- Survival (normal rat liver; [6]): term
- Gross Findings (liver lesions) (normal rat liver; [7]): very small lesions
- Survival (normal rat liver; [7]): term
- Gross Findings (liver lesions) (normal rat liver; [8]): small lesions
- Survival (normal rat liver; [8]): term
- Clinical Signs (normal rat liver; [9]): Less active &
- Gross Findings (liver lesions) (normal rat liver; [9]): large areas of tissue destruction; also recorded: fice. Large areas
- Survival (normal rat liver; [9]): term
- Clinical signs at sacrifice (normal rat liver; [10]): appeared normal at sacrifice
- gross examination of the liver (normal rat liver; [10]): no or small lesions
- toxic effects in normal liver tissue (normal rat liver; solutions containing carmustine up to 50 mg/ml): no toxic effects
